Test system: pooled normal plasma
Assay: CLSM thrombelastography with tPA in undiluted and 30% diluted plasma
Type: biochemical, human
Settings: tPA 100 IU/mL, 100 μM CORM-2, median, n=8
Excerpt: Plasma and volume expanders. Pooled normal plasma (George King Bio-Medical, Overland Park, Kans.) anticoagulated with sodium citrate was utilized for experimentation. […] The volume expanders tested were 0.9% NaCl (Abbott Laboratories, North Chicago, Ill.; also designated as NS) and 6% hydroxylethyl starch (HES) in 0.9% NaCl (VOLUVEN®, average molecular weight 130 kDa, 0.4 degree of substitution, C2:C6 ratio of substitution 11.2; Fresenius Kabi, Bad Homburg, Germany; also referred to as VOL).
Plasma sample composition of experiments with tissue-type plasminogen activator addition. As in the first series of experiments, the final volume of plasma sample mixtures was 359.6 μL. Sample composition consisted of 316 μL of plasma/volume expander, 10 μL of tissue factor reagent (0.1% final concentration), 3.6 μL of DMSO without or with CORM-2 (100 μM final concentration), 10 μL of tissue-type plasminogen activator (tPA, 580 U/μg, Genentech, Inc., San Francisco, Calif.) diluted with 10 mM potassium phosphate buffer (pH 7.4) for a final activity of 100 IU/mL, and 20 μL of 200 mM CaCl2. As with tissue factor reagent, tPA stock was kept on ice prior to use and was remade every two hours. Plasma was diluted 0% or 30% with NS or VOL (n=8 per condition).
Clot Lifespan Model (CLSM) Analyses. Plasma sample mixtures were placed in a disposable cup in a computer-controlled THROMBELASTOGRAPH® hemostasis system (Model 5000, Haemoscope Corp., Niles, Ill.), with addition of CaCl2 as the last step to initiate clotting. In the first series of experiments, no tPA was added, so data were collected until clot strength (maximum amplitude) was stable. In the second series of experiments which in tPA was added, data were collected until clot lysis time occurred. […] Additional elastic modulus-based parameters were determined and the nomenclature used to describe these phenomena is as follows: Time to maximum rate of thrombus generation (TMRTG): This is the time interval (sec) observed prior to maximum speed of clot growth. Maximum rate of thrombus generation (MRTG): This is the maximum velocity of clot growth observed (dynes/cm^2/sec). Total Thrombus Generation (TTG): This is the total area under the velocity curve during clot growth (dynes/cm^2), representing the amount of clot strength generated during clot growth. Time to maximum rate of lysis (TMRL): This is the time interval (sec) measured from the time of maximum strength to the time when the velocity of clot disintegration is maximal. Maximum Rate of Lysis (MRL): This is the maximum velocity of clot disintegration observed (−dynes/cm^2/sec). Area of Clot Lysis (ACL): This is the total area under the velocity curve during clot disintegration (−dynes/cm^2), representing the amount of clot strength lost during clot disintegration. As this model involves complete fibrinolysis, TTG is equivalent to ACL, so ACL was not presented as it provides no additional information.
Statistical Analyses. Data obtained from pooled normal plasma not exposed to tPA were graphically represented with commercially available software (SigmaPlot 11.0, Systat Software, Inc., San Jose, Calif.), and kinetic modeling of thrombelastographic data performed with the same software. Analyses of the effects of hemodilution and CORM-2 on CLSM variables obtained from pooled normal plasma were conducted using Kruskal-Wallis one way analysis of variance with Student-Newman-Keuls post-hoc test. […] These analyses were conducted with the same commercially available software (SigmaPlot 11.0). A P value of <0.05 was considered significant.

[C-]#[O+].[C-]#[O+].[C-]#[O+].[C-]#[O+].[C-]#[O+].[C-]#[O+].[Cl][Ru][Cl].[Cl][Ru][Cl] [CORM-2, tricarbonyldichlororuthenium (II) dimer]
CGT (clot growth time) (plasma diluted 30% with NS): 8.0 min | CLS (clot lifespan) (plasma diluted 30% with NS): 38.7 min | CLT (clot lysis time) (plasma diluted 30% with NS): 31.5 min | MRL (maximum rate of lysis) (plasma diluted 30% with NS): −1.9 −dynes/cm^2/sec | MRTG (maximum rate of thrombus generation) (plasma diluted 30% with NS): 11.2 dynes/cm^2/sec | TMRL (time to maximum rate of lysis) (plasma diluted 30% with NS): 23.4 min | TMRTG (time to maximum rate of thrombus generation) (plasma diluted 30% with NS): 2.00 min | TTG (total thrombus generation) (plasma diluted 30% with NS): 206 dynes/cm^2 | CGT (clot growth time) (plasma diluted 30% with VOL): 2.2 min | CLS (clot lifespan) (plasma diluted 30% with VOL): 10.0 min | CLT (clot lysis time) (plasma diluted 30% with VOL): 8.0 min | MRL (maximum rate of lysis) (plasma diluted 30% with VOL): −0.9 −dynes/cm^2/sec | MRTG (maximum rate of thrombus generation) (plasma diluted 30% with VOL): 3.8 dynes/cm^2/sec | TMRL (time to maximum rate of lysis) (plasma diluted 30% with VOL): 5.2 min | TMRTG (time to maximum rate of thrombus generation) (plasma diluted 30% with VOL): 2.0 min | TTG (total thrombus generation) (plasma diluted 30% with VOL): 62 dynes/cm^2 | CGT (clot growth time) (undiluted plasma): 8.1 min | CLS (clot lifespan) (undiluted plasma): 31.6 min | CLT (clot lysis time) (undiluted plasma): 24.3 min | MRL (maximum rate of lysis) (undiluted plasma): −3.0 −dynes/cm^2/sec | MRTG (maximum rate of thrombus generation) (undiluted plasma): 13.9 dynes/cm^2/sec | TMRL (time to maximum rate of lysis) (undiluted plasma): 17.7 min | TMRTG (time to maximum rate of thrombus generation) (undiluted plasma): 2.1 min | TTG (total thrombus generation) (undiluted plasma): 285 dynes/cm^2

From US8697747B2, “Enhancing coagulation or reducing fibrinolysis” (THe UAB Research Foundation, priority 2009, dated 2014)
